In data set [1] the test system is Brain. The data set is described as follows: Drug uptake in anesthetized rhesus monkey brain at 1.5 ug measured for 122 mins by PET analysis. The data set is classed as ADME, tissue-based, Macaca mulatta. The conditions noted are these: in vivo.
Data set [2] can be described thus: Partition coefficient, log P of the compound by shake flask method. The data set is classed as physicochemical. The conditions noted are these: octanol/water.
In data set [3] the test system is Brain. The data set is described as follows: Drug uptake in anesthetized rhesus monkey brain at 1.7 ug measured for 122 mins by PET analysis. It is filed as ADME, tissue-based, Macaca mulatta. The conditions noted are these: in vivo.

Each structure is given as a SMILES string.

As to `[11CH3]n1c(SCC(=O)N2CCC[C@H]2C(=O)Nc2ccccc2-c2ccccc2)nc2ccccc21`, the Drug uptake entry in the data set on Brain [1] is recorded as “Not Active”. Besides, the logP in data set [2] was 3.4.
On to `[11CH3]n1c(CCC(=O)N2CCC[C@H]2C(=O)Nc2ccccc2-c2ccccc2)nc2ccccc21`, for which, in the data set with Brain [3], the Drug uptake entry was “Not Active”. The same compound registered a lipophilicity (logP) in data set [2] of 2.8.
